“Also recorded” adds a separate entry of the source.
Experiments:
[1] = system: pancreas islets of the rats; assay: Insulin secretion of isolated rat pancreas islets (insulin radioimmunoassay); conditions: for effect of promoting insulin secretion: 30 min incubation, n=7
C57BL/6 mice = assay: Oral glucose tolerance test (OGTT); type: in vivo; conditions: n=7

COc1ccc(C[C@H]2NC[C@H](O)[C@H]2OC(C)=O)cc1 [anisomycin, (2R,3S,4S)-2-[(4-methoxyphenyl)methyl]-3,4-pyrrolidinediol 3-acetate methyl ester]
effect of promoting insulin secretion ([1]; 2.8 mmol/L glucose (2.8G), 10 μM): does not have the effect of promoting insulin secretion; also recorded: does not have the effect of promoting secretion of insulin
effect of promoting insulin secretion ([1]; 11.1 mmol/L glucose (11.1G), 1 μM): has the significant effect of promoting insulin secretion
effect of promoting insulin secretion ([1]; 11.1 mmol/L glucose (11.1G), 10 μM): has the significant effect of promoting insulin secretion; also recorded: has the significant effect of promoting secretion of insulin
effect of promoting insulin secretion ([1]; 16.7 mmol/L glucose (16.7G), 10 μM): can still promote secretion of insulin with significant difference
concentration dependence of promoting insulin secretion ([1]; 11.1G, 0.1 μM, 1 μM and 10 μM): concentration-dependent effect of promoting insulin secretion
tolerance to glucose load (blood glucose curve and AUC in OGTT) (C57BL/6 mice; 5 mg/kg intraperitoneally, vs control group): improved to different extents
glucose reducing effect (blood glucose curve and AUC in OGTT) (C57BL/6 mice; 15 mg/kg intraperitoneally, vs control group and 5 mg/kg): more obvious than 5 mg/kg anisomycin in glucose reducing effect

Source: US12612362B2 (SHANXI MEDICAL UNIVERSITY, priority 2021, dated 2026)
